Reference: the NIST ThermoML archive (doi:10.1016/j.jct.2019.03.014)
Numbers after ± are expanded uncertainties.

Assays:
[1] = Ring tensiometer
[2] = xn = mol fraction of the nth substance listed; conditions: Ring tensiometer

CCCCO [butan-1-ol]
[1]
Conditions | surface tension liquid-gas [mN/m]
293.2 K | 24.7 ± 0.7
303.2 K | 23.8 ± 0.7
313.2 K | 22.8 ± 0.7
323.2 K | 21.6 ± 0.7
333.2 K | 20.3 ± 0.7

CCCCO [butan-1-ol] + OCC(O)CO
[2], x1 = 1
Conditions | surface tension liquid-gas [mN/m]
293.2 K | 24.7 ± 0.7
303.2 K | 23.8 ± 0.7
313.2 K | 22.8 ± 0.68
323.2 K | 21.6 ± 0.7
333.2 K | 20.3 ± 0.7

CCO [ethanol]
[1]
Conditions | surface tension liquid-gas [mN/m]
293.2 K | 22.3 ± 0.7
303.2 K | 21.4 ± 0.7
313.2 K | 20.6 ± 0.7
323.2 K | 19.8 ± 0.7
333.2 K | 19 ± 0.7

CCO [ethanol] + OCC(O)CO
[2], x1 = 1
Conditions | surface tension liquid-gas [mN/m]
293.2 K | 22.3 ± 0.7
303.2 K | 21.4 ± 0.7
313.2 K | 20.6 ± 0.7
323.2 K | 19.8 ± 0.7
333.2 K | 19 ± 0.7

OCC(O)CO [glycerol]
[1]
Conditions | surface tension liquid-gas [mN/m]
293.2 K | 63.1 ± 1
298.2 K | 62.9 ± 1
303.2 K | 62.4 ± 1
313.2 K | 62 ± 1
323.2 K | 61.1 ± 1
333.2 K | 60.5 ± 0.9

OCC(O)CO [glycerol] + CC(C)O
surface tension liquid-gas [mN/m], [2]
Conditions | x2 = 0 | x2 = 0.1 | x2 = 0.2 | x2 = 0.3 | x2 = 0.4 | x2 = 0.5 | x2 = 0.6 | x2 = 0.7 | x2 = 0.8 | x2 = 0.9
293.2 K | 63.1 ± 1 | 45.7 ± 0.9 | 34.3 ± 0.8 | 28.8 ± 0.72 | 26.7 ± 0.7 | 25.6 ± 0.7 | 24.8 ± 0.7 | 23.9 ± 0.7 | 22.8 ± 0.7 | 21.9 ± 0.7
303.2 K | 62.4 ± 1 | 45.1 ± 0.9 | 34 ± 0.8 | 28.5 ± 0.7 | 26.2 ± 0.7 | 25.1 ± 0.7 | 24.2 ± 0.7 | 23.4 ± 0.7 | 22.3 ± 0.7 | 21.4 ± 0.7
313.2 K | 62 ± 1 | 44.4 ± 0.9 | 33.6 ± 0.8 | 28 ± 0.7 | 25.8 ± 0.7 | 24.6 ± 0.7 | 23.7 ± 0.7 | 23 ± 0.7 | 21.8 ± 0.7 | 20.9 ± 0.7
323.2 K | 61.1 ± 1 | 43.9 ± 0.9 | 32.9 ± 0.8 | 27.6 ± 0.7 | 25.5 ± 0.69 | 24.1 ± 0.7 | 23.5 ± 0.7 | 22.5 ± 0.7 | 21.2 ± 0.7 | 20 ± 0.7
333.2 K | 60.5 ± 0.9 | 43.2 ± 0.9 | 32.2 ± 0.8 | 27.2 ± 0.7 | 25 ± 0.7 | 23.7 ± 0.7 | 22.6 ± 0.7 | 22.1 ± 0.7 | 20.6 ± 0.7 | 19.1 ± 0.7

OCC(O)CO [glycerol] + CCCCO
surface tension liquid-gas [mN/m], [2]
Conditions | x2 = 0 | x2 = 0.1 | x2 = 0.2 | x2 = 0.3 | x2 = 0.4 | x2 = 0.5 | x2 = 0.6 | x2 = 0.7 | x2 = 0.8 | x2 = 0.9
293.2 K | 63.1 ± 1 | 33.1 ± 0.8 | 28 ± 0.7 | 26.4 ± 0.7 | 26.2 ± 0.7 | 25.9 ± 0.7 | 25.7 ± 0.7 | 25.4 ± 0.7 | 25.2 ± 0.7 | 24.8 ± 0.7
303.2 K | 62.4 ± 1 | 32.9 ± 0.8 | 27.7 ± 0.7 | 26.2 ± 0.7 | 26 ± 0.7 | 25.7 ± 0.7 | 25.4 ± 0.7 | 25.1 ± 0.7 | 24.8 ± 0.7 | 24.3 ± 0.7
313.2 K | 62 ± 1 | 32.8 ± 0.8 | 27.3 ± 0.7 | 26.1 ± 0.7 | 25.8 ± 0.7 | 25.5 ± 0.7 | 25.1 ± 0.7 | 24.8 ± 0.7 | 24.5 ± 0.7 | 23.7 ± 0.7
323.2 K | 61.1 ± 1 | 32.7 ± 0.8 | 27 ± 0.7 | 25.6 ± 0.7 | 25.2 ± 0.7 | 24.7 ± 0.7 | 24.3 ± 0.7 | 24 ± 0.7 | 23.7 ± 0.7 | 22.7 ± 0.7
333.2 K | 60.5 ± 0.9 | 32.5 ± 0.8 | 26.7 ± 0.7 | 25.3 ± 0.7 | 24.8 ± 0.7 | 24.3 ± 0.7 | 23.7 ± 0.7 | 23.2 ± 0.7 | 22.9 ± 0.7 | 21.6 ± 0.7
